Test results as given in patent publication US12595279B2, “Modified nucleoside and synthetic methods thereof” (STEMIRNA THERAPEUTICS CO., LTD., priority 2019, dated 2026).

How the values were obtained:
[1] = test system: mice dendritic cells (D.2.4 cells); assay: Expression of 100% cytidine-modified luciferase (FLuc) mRNA, LPP-wrapped, in dendritic cells (luciferase activity, RLU); assay type: cell-based; details: FIG. 2; for difference of luciferase expression versus the control and m^4C (significance analysis on variance): 100% of cytidine replaced, control = cytidine without modification, P≤0.01, 24 h after transfection
Excerpt: Obtaining of the mRNA of the modified luciferase: DNA sequence of Luc may be in vitro transcribed to mRNA by means of a transcriptase under a conventional reagent condition. During the process of transcription, modified mRNA in varying proportions were obtained according to a ratio of the modified C (cytidine) and non-modified C, where the modified mRNA may contain U-modified mRNA in varying proportions. The sequence was in vitro synthesized into the following modified mRMA, thus forming new modified luciferase. In the above sequence (SEQ NO:1), cytidine was replaced by the modified C* in the present invention; and the following modified C* denotes the expression of the mRNA of 5 monocytidine-modified mRNA having a modification ratio of 100% (namely, all the C were replaced into the following 5 different C* modifications, m^4C (N4-methylcytidine), and m^4Cm (N^4, 2′-O-dimethylcytidine), specifically as shown in Table 1.
1.2.1: Preparation of a phospholipid mixed liquor: phospholipid:DOPE:mPEG2000-DSPE=49:49:2 were dissolved into an ethanol solution. DOPE was purchased from Avanti, mPEG2000-DSPE was purchased from cordenpharma, and PBS was purchased from Invitrogen.
1.2.2: Preparation of mRNA: 1 mL mRNA (mRNA having a concentration of 0.2 mg/mL and total mass of 0.2 mg as shown in Table 2) in each treatment group was respectively sucked up by a BD injector.
1.2.3: Preparation of phospholipid/mRNA: […] and 3 mL phospholipid solution (having a concentration of 12 mg/mL) were respectively sucked up by a BD injector and inserted into a micro-fluidic chip (the microfluidics herein should be a small-sized equipment capable of producing package for nanoparticles); the setup parameters: volume: 9.0 mL; and flow rate ratio: 3:1, total flow rate: 1 mL/min; temperature: 37.0° C., initial amount: 0.35 mL; ending amount: 0.10 mL, thus a phospholipid/mRNA solution was obtained, namely, mRNA particles wrapped by phospholipid and a phospholipid mixed solution were obtained.
Thereby, the wrapped mRNA carrier in each treatment group was obtained.
Experiment reagent: (1) water was added to a harvest buffer (25 ml): 1.25 ml 1 M Tris-HCl(pH7.5), 25 μl 1 M DTT, 250 μl 10% Triton X-100 to 25 ml for storage at 4° C. (2) water was added to an ATP buffer (10 ml): 1.25 ml 1 M Tris-HCl(pH7.5), 250 μl 1 M MgCl2, 24 mg ATP to 10 ml for storage at […] (3) luciferin buffer (36 ml): 10 mg luciferin, 36 ml 5 mM KH2PO4 (pH7.8) was performed for storage at 4° C. (4) PBS: […], 2.68 mMKCl, 10 mM Na2HPO4, 1.76 mM KH2PO4 was performed for storage at 4° C. […]
1.3.6: same volume of cell lysis buffer (100 μl) was successively taken and put to the microcentrifuge tubes in step 5, and mixed evenly immediately, and […] were read on a Luminometer. […]

dendritic cells [2] = assay: Influence of a 120A Poly(A) tail on the 3′ terminal on expression of modified luciferase mRNA in dendritic cells; assay type: cell-based, mice; details: 120A tail; luciferase mRNA 100% modified; compared with FIG. 2 (FIG. 3)
Method: 120A was added on a 3′ terminal as a tail, so as to survey the influence of adding Poly(A) on the 3′ terminal on the translation effect, as well as on the expression of the luciferase 100% modified by the inventions 1-4 and control group. The influence on enzyme expression was measured according to the packaging method and cell infection method in Example 1. It can be obviously seen through the comparison of FIG. 2 that the expression was increased both to the modified or non-modified mRNA after adding a Ploy (A) structure on the 3′ terminal.

dendritic cells [3] = assay: Influence of different modification ratios of cytidine on luciferase mRNA expression; assay type: cell-based, mice; details: for difference of expression at the best modification ratio versus other modification ratios (variance analysis): best ratio: invention 1 80%-100%, invention 4 20%, invention 2 40%, invention 3 5%; for trend of expression with the increase of the modification ratio: cytidine replaced at 0.5% to 100%; for trend of expression with the increase of the modification ratio / modification ratio with the maximum (optimal) expression quantity: FIGS. 4-7; for modification ratio with the maximum (optimal) expression quantity / modification ratio at which the expression quantity is relatively high: luciferase mRNA, part of the cytidine replaced; for modification ratio at which the expression quantity is relatively high: FIGS. 5-7
Method: mRNA of the luciferase in Example 1 was set as an example; a portion of cytidine was replaced with the compounds of the modified cytidine in the present invention having a ratio of 0.5%, 5%, 10%, 20%, 30%, 40%, 50%, 70%, 80% and 90%; and the specific replacement method was as follows: transcription was performed by a transcriptase of in vitro luciferase DNA with the supply of AUCG raw materials and according to a conventional method, where the synthesis method should be controlled and replaced, and then a portion of cytidine in mRNA was replaced according to the above ratio. The influence of the replacement in different ratios on the expression of mRNA was surveyed.

## NC(N)=Nc1ccn(C2OC(COP(=O)([O-])OP(=O)([O-])OP(=O)([O-])[O-])C(O)C2O)c(=O)n1.[K+].[K+].[K+].[K+] (stereo not shown) [invention 1]
[1]
  difference of luciferase expression versus the control and m^4C (significance analysis on variance): highly significant difference
Dendritic cells [2]
  change of expression after adding a Poly(A) structure on the 3′ terminal: comparatively obvious
Dendritic cells [3]
  difference of expression at the best modification ratio versus other modification ratios (variance analysis): significant difference
  trend of expression with the increase of the modification ratio: increased
  modification ratio with the maximum (optimal) expression quantity: 80%-100%

## Cc1cn(C2CC(O)C(COP(=O)([O-])OP(=O)([O-])OP(=O)([O-])[O-])O2)c(=O)nc1N=C(N)N.[K+].[K+].[K+].[K+] (stereo not shown) [invention 2]
[1]; 100% modification, comparator m^4Cm (N^4,2′-O-dimethylcytidine)
  difference of luciferase expression versus m^4Cm-modified mRNA: no significant difference
[1]
  difference of luciferase expression versus the control and m^4C (significance analysis on variance): highly significant difference
Dendritic cells [3]
  difference of expression at the best modification ratio versus other modification ratios (variance analysis): significant or highly significant differences
  trend of expression with the increase of the modification ratio: gradually increases
  modification ratio with the maximum (optimal) expression quantity: 40%
  modification ratio at which the expression quantity is relatively high: 20%-40%

## Cc1c(O)c(N=C(N)N)nc(=O)n1C1OC(COP(=O)([O-])OP(=O)([O-])OP(=O)([O-])[O-])C(O)C1O.[K+].[K+].[K+].[K+] (stereo not shown) [invention 4]
[1]
  difference of luciferase expression versus the control and m^4C (significance analysis on variance): highly significant difference
Dendritic cells [3]
  difference of expression at the best modification ratio versus other modification ratios (variance analysis): significant or highly significant differences
  trend of expression with the increase of the modification ratio: gradually increases
  modification ratio with the maximum (optimal) expression quantity: 20%
  modification ratio at which the expression quantity is relatively high: 20%-40%
